Measurements from patent US10668051B2, “Modulators of calcium release-activated calcium channel” (Rhizen Pharmaceuticals SA, priority 2009, dated 2020).
Counter-ions that a name gives are not always drawn.

What was measured:
Format in all cases: cell-based
IL-2 [1] = experiment: Inhibition of cytokine release in Human Whole Blood: IL-2; settings: Con A + PMA, 20 h, ELISA, read-out: IC 50 Human Whole Blood IL-2
Method: (§1) 2. In Vitro Inhibition of Cytokine Release in Jurkat Cells, Human Whole Blood and Peripheral Blood Mononuclear Cells (PBMC).
(§2) Inhibition of cytokine IL-2, IL-4, IL-5 and TNF α was determined as described below. • a. Inhibition of IL-2 in Jurkat cells: Cells were incubated with desired concentrations of the inhibitor for 15 min. Cytokine release was induced by the addition of Concanavalin A (25 μg/ml)+Phorbol Myristate Acetate (50 ng/ml) for IL-2 & TNFα or with Phytohemagglutinin ([…]) for IL-4 & IL-5 and incubated at 37° C. in an atmosphere containing […]. Supernatant was collected after 20 h (IL-2 & TNFα) or 48 h (IL-4 & IL-5) for estimation of cytokines by ELISA. Data were analysed using GraphPad Prism. IC50 values for each compound were determined based on the percent inhibition due to the test compound compared to the control. • b. Inhibition of cytokine release in Human Whole Blood (HWB): Freshly collected HWB was diluted with RPMI medium (1:4.5) and added to a 96-well plate. Wells were incubated with desired concentrations of the inhibitor for 15 min. Cytokine release was induced by the addition of Concanavalin A (25 μg/ml)+Phorbol Myristate Acetate (50 ng/ml) for IL-2 & TNFα or with Phytohemagglutinin (5 μg/ml) for IL-4 & IL-5 and incubated at 37° C. in an atmosphere containing […]. Supernatant was collected after 20 h (IL-2 & TNFα) or 48 h (IL-4 & IL-5) for estimation of cytokines by ELISA. Data were analysed using GraphPad Prism. IC50 values for each compound were determined based on the percent inhibition due to the test compound compared to the control. • c. Inhibition of cytokine release in PBMC: PBMC from freshly collected HWB were isolated by density gradient using Histopaque and seeded in a 96-well plate. Cells were incubated with desired concentrations of the inhibitor for 15 min. Cytokine release was induced by the addition of Concanavalin A (25 μg/ml)+Phorbol Myristate Acetate (50 ng/ml) for IL-2 & TNFα or with Phytohemagglutinin (5 μg/ml) for IL-4 & IL-5 and incubated at 37° C. in an atmosphere containing […]. Supernatant was collected after 20 h (IL-2 & TNFα) or 48 h (IL-4 & IL-5) for estimation of cytokines by ELISA. Data were analysed using GraphPad Prism. IC50 values for each compound were determined based on the percent inhibition due to the test compound compared to the control.

CRAC channels [2] = biological target: T1, CRAC channels (Homo sapiens (Human), UniProt Q96D31); experiment: In-vitro CRAC channel inhibition assay in Jurkat cells (thapsigargin-induced calcium influx)
How it was run: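 Jurkat cells given test compounds in Ca2+/Mg2+-free Hanks buffer for 15 min, then thapsigargin (1 μM final) for 15 min to deplete ER stores. IC50 from percent inhibition of thapsigargin-induced Ca2+ influx.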

CRAC channels [3] = biological target: T1, CRAC channels; experiment: In-vitro CRAC channel inhibition assay in NCI-H460 cancer cell line (Ca assay); settings: thapsigargin-induced calcium influx, NCI-H460 cells
Method: 1B. In-Vitro CRAC Channel Inhibition Assay in NCI-H460 Cancer Cell Line
Inhibition of CRAC channels was determined following thapsigargin (Sigma, Cat #T9033) induced endoplasmic calcium release in NCI-H460 cells (National Centre For Cell Science (NCCS), Pune).
Cells (30,000 per well) were plated overnight in complete RPMI medium. Medium was substituted with Ca^2+ and Mg^2+ free Hanks buffer and Fluo-8 NW dye (ABD Bioquest, Inc., Sunnyvale, Calif.) loading solution in 96-well black plate. Plate was incubated at 37° C./5% CO2 for 30 min followed by further 15 min incubation at room temperature. Test compounds (DMSO stocks diluted in Ca^2+ and Mg^2+ free Hanks buffer) at desired concentrations were added to the wells and incubated for 15 min. Thapsigargin (1 μM final concentration) was added to the wells and incubated for 15 min to inhibit the Sarco-endoplasmic reticulum Ca^2+ ATPase pump thereby depleting endoplasmic calcium and raising cytosolic calcium concentrations. Store-operated calcium entry was initiated by adding extracellular Ca^2+ to a final concentration of 2.5 mM. Fluorescence was monitored over 30 min on a plate reader (BMG Labtech., Germany) with excitation at 485 nm and an emission wavelength at 520 nm. Data were analyzed using GraphPad Prism. IC50 for each compound was determined based on the percent inhibition of Thapsigargin-induced calcium influx into cells.

[4] = system: NCI-H460 cancer cell line; experiment: In-vitro cell proliferation assay in NCI-H460 cancer cell line (MTT); settings: Homo sapiens, 48 h; for IC50: read-out: NCI-H460 Cell line assay G1 50 nM
Method: 1C. In-Vitro Cell Proliferation Assay in NCI-H460 Cancer Cell Line (Anticancer Activity)
Growth inhibition assays were carried out using 10% FBS supplemented media. Cells were seeded at a concentration of 5000 cells/well in a 96-well plate. Test compound at a concentration range from 0.01 to 10000 nM were added after 24 h. Growth was assessed using the 3-[4,5-dimethylthiazol-2-yl]-2,5-diphenyltetrazolium bromide (MTT) dye reduction test at 0 h (prior to the addition of the test compound) and 48 h after the addition of test compound. Absorbance was read on a Fluostar Optima (BMG Labtech, Germany) at a wave length of 450 nm. Data were analysed using GraphPad Prism. IC-50 for each compound was determined based on the % inhibition due to the test compound compared to the control.
For methods of cell proliferation assay, see, for example, Mosmann. T., Journal of Immunological Methods, 65(1-2), 55-63, (1983).

TNFα [5] = experiment: Inhibition of cytokine release in Human Whole Blood: TNFα; settings: Con A + PMA, 20 h, ELISA, read-out: IC 50 Human Whole Blood TNFα
Method: as §1, §2

IL-2 [6] = experiment: Inhibition of IL-2 in Jurkat cells; settings: Homo sapiens, Con A + PMA, 20 h, ELISA, read-out: IC 50 Jurkat IL-2
Method: as §1, §2

IL-2 [7] = experiment: Inhibition of cytokine release in PBMC: IL-2; settings: Homo sapiens, Con A + PMA, 20 h, ELISA, read-out: IC 50 PBMC IL-2
Method: as §1, §2

TNFα [8] = experiment: Inhibition of cytokine release in PBMC: TNFα; settings: Homo sapiens, Con A + PMA, 20 h, ELISA, read-out: IC 50 PBMC TNFα
Method: as §1, §2

T1 sequence (Q96D31 whole entry): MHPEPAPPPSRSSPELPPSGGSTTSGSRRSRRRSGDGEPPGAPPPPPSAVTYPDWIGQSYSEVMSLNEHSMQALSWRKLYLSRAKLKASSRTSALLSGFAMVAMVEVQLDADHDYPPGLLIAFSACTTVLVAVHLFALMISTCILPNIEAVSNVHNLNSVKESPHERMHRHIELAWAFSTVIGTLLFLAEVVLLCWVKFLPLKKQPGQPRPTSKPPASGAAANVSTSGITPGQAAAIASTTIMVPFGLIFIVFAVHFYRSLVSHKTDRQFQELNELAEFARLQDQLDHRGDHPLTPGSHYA

IC50 (IL-2 [1]) [nM] | inhibition at 1 µM (CRAC channels [2]) [%] | inhibition at 1 µM (CRAC channels [3]) [%] | Compound | inhibition at 10 µM [4] [%] | also measured
82.8 | 100 |  | O=C(Nc1ccc(-n2nc(C(F)(F)F)cc2C2CC2)nc1)c1cccnc1 [Example 111, N-{6-[5-cyclopropyl-3-(trifluoromethyl)-1H-pyrazol-1-yl]pyridin-3-yl}nicotinamide hydrochloride] |  | 
 | 100 |  | O=C(Nc1ccc(-n2nc(C(F)(F)F)cc2C2CC2)c(F)c1)c1ccncc1F [Example 91, N-{4-[5-cyclopropyl-3-(trifluoromethyl)-1H-pyrazol-1-yl]-3-fluorophenyl}-3-fluoroisonicotinamide] | 92.7 | IC50 [4]: 1360 nM
77.2 |  |  | C[C@]12C=CC(=O)C=C1CC[C@@H]1[C@@H]2[C@@H](O)C[C@@]2(C)[C@H]1CC[C@]2(O)C(=O)CO [Prednisolone, reference compound] |  | IC50 (IL-2 [6]): 35.5 nM; IC50 (IL-2 [7]): 3.72 nM
 | 95.8 |  | O=C(Nc1ccc(-n2nc(C(F)(F)F)cc2C2CC2)c(F)c1)c1c(Cl)cncc1Cl [Example 92, 3,5-dichloro-N-{4-[5-cyclopropyl-3-(trifluoromethyl)-1H-pyrazol-1-yl]-3-fluorophenyl}isonicotinamide] | 100 | 
 | 100 |  | O=C(Nc1ccc(-n2nc(C(F)(F)F)cc2C2CC2)c(F)c1)c1ccncc1 [Example 90, N-{4-[5-cyclopropyl-3-(trifluoromethyl)-1H-pyrazol-1-yl]-3-fluorophenyl}isonicotinamide hydrochloride] | 90.7 | IC50 [4]: 305 nM
83.6 | 100 |  | O=C(Nc1ccc(-n2nc(C(F)(F)F)cc2C2CC2)nc1)c1ccccc1F [Example 106, N-(6-(5-cyclopropyl-3-(trifluoromethyl)-1H-pyrazol-1-yl)pyridin-3-yl)-2-fluorobenzamide] |  | IC50 (TNFα [8]): 105 nM; IC50 (IL-2 [6]): 60.5 nM; IC50 (IL-2 [7]): 11.5 nM
38.2 | 100 |  | Cc1nnsc1C(=O)Nc1ccc(-n2nc(C(F)(F)F)cc2C2CC2)c(F)c1 [Example 82, N-{4-[5-cyclopropyl-3-(trifluoromethyl)-1H-pyrazol-1-yl]-3-fluorophenyl}-4-methyl-1,2,3-thiadiazole-5-carboxamide] |  | IC50 (IL-2 [7]): 24.6 nM
96.1 | 100 |  | Cc1ccccc1C(=O)Nc1ccc(-n2nc(C(F)(F)F)cc2C2CC2)nc1 [Example 104, N-{6-[5-cyclopropyl-3-(trifluoromethyl)-1H-pyrazol-1-yl]pyridin-3-yl}-2-methylbenzamide] |  | IC50 (TNFα [8]): 21.1 nM; IC50 (IL-2 [6]): 57.5 nM; IC50 (TNFα [5]): 582 nM; IC50 (IL-2 [7]): 66.7 nM

Continued, compound first:

Compound | IC50 (IL-2 [1]) [nM] | inhibition at 1 µM (CRAC channels [2]) [%] | inhibition at 1 µM (CRAC channels [3]) [%] | inhibition at 10 µM [4] [%] | also measured
Cc1nnsc1C(=O)Nc1ccc(-n2nc(C(F)(F)F)cc2C2CC2)cc1 [Example 52, N-{4-[5-cyclopropyl-3-(trifluoromethyl)-1H-pyrazol-1-yl]phenyl}-4-methyl-1,2,3-thiadiazole-5-carboxamide] |  | 100 | 78.2 | 34 | 
O=C(Nc1ccc(-n2nc(C(F)(F)F)cc2C2CC2)cc1)c1c(Cl)cncc1Cl [Example 49, 3,5-dichloro-N-{4-[5-cyclopropyl-3-(trifluoromethyl)-1H-pyrazol-1-yl]phenyl}isonicotinamide] | 199 | 100 |  |  | 
Cc1nnsc1C(=O)Nc1ccc(-n2nc(C3CC3)cc2C2CC2)cc1 [Example 1, N-[4-(3,5-dicyclopropyl-1H-pyrazol-1-yl)phenyl]-4-methyl-1,2,3-thiadiazole-5-carboxamide] | 338 | 99 | 93.2 | 31 | IC50 (TNFα [5]): 1080 nM
O=C(Nc1ccc(-n2nc(C3CC3)cc2C2CC2)cc1)c1cccc(F)c1F [Example 9, N-[4-(3,5-dicyclopropyl-1H-pyrazol-1-yl)phenyl]-2,3-difluorobenzamide] |  | 98.6 | 86.8 | 14 | 
Cc1oncc1C(=O)Nc1ccc(-n2nc(C(F)(F)F)cc2C2CC2)cc1 [Example 56, N-{4-[5-cyclopropyl-3-(trifluoromethyl)-1H-pyrazol-1-yl]phenyl}-5-methylisoxazole-4-carboxamide] | 78.4 | 100 |  |  | 
Cc1ncsc1C(=O)Nc1ccc(-n2nc(C3CC3)cc2C2CC2)cc1 [Example 2, N-[4-(3,5-dicyclopropyl-1H-pyrazol-1-yl)phenyl]-4-methylthiazole-5-carboxamide] |  | 100 | 100 |  | IC50 [4]: 197 nM
O=C(Nc1ccc(-n2nc(C3CC3)cc2C2CC2)cc1)c1ccccc1 [Example 6, N-[4-(3,5-dicyclopropyl-1H-pyrazol-1-yl)phenyl]benzamide] |  | 41.3 | 86 | 35 | 
O=C(Nc1ccc(-n2nc(C3CC3)cc2C2CC2)cc1)C1(c2ccccc2)CC1 [Example 21, N-[4-(3,5-dicyclopropyl-1H-pyrazol-1-yl)phenyl]-1-phenylcyclopropanecarboxamide] |  | 78.4 |  | 41 | 
Cc1nc(C)c(C(=O)Nc2ccc(-n3nc(C(F)(F)F)cc3C3CC3)cc2)s1 [Example 55, N-{4-[5-cyclopropyl-3-(trifluoromethyl)-1H-pyrazol-1-yl]phenyl}-2,4-dimethylthiazole-5-carboxamide] |  | 100 | 100 |  | IC50 [4]: 613 nM
Cc1ncsc1NC(=O)c1ccc(-n2nc(C(F)(F)F)cc2C2CC2)cc1 [Example 78, 4-[5-cyclopropyl-3-(trifluoromethyl)-1H-pyrazol-1-yl]-N-(4-methylthiazol-5-yl)benzamide] | 34.7 | 100 |  |  | IC50 (IL-2 [7]): 149 nM
